Reference: US7696207B2, “Therapeutic agents useful for treating pain” (Purdue Pharma L.P., priority 2002, dated 2010)

Assays:
human VR1 [1] = biological target: T1, human VR1 (Homo sapiens, UniProt Q8NER1); assay: VR1 pH-based assay (FLIPR calcium influx); format: cell-based; conditions: HEK293-EcR cells induced to express human VR1; activation by agonist buffer pH 5.5; Fluo-4, FLIPR
T1 construct: expressed in transfected cells
Description: (§1) Human VR1 cloning. Human spinal cord RNA (commercially available from Clontech, Palo Alto, Calif.) was used. Reverse transcription was conducted on 1.0 μg total RNA using Thermoscript Reverse Transcriptase (commercially available from Invitrogen, Carlsbad, Calif.) and oligo dT primers as detailed in its product description. Reverse transcription reactions were incubated at 55° C. for 1 h, heat-inactivated at 85° C. for 5 min, and RNase H-treated at 37° C. for 20 min.
(§2) Human VR1 cDNA sequence was obtained by comparison of the human genomic sequence, prior to annotation, to the published rat sequence. Intron sequences were removed and flanking exonic sequences were joined to generate the hypothetical human cDNA. Primers flanking the coding region of human VR1 were designed as follows: forward primer, […] (SEO ID NO: 1); and reverse primer, […] (SEO ID NO: 2). […]
(§3) Generation of inducible cell lines. […] On the day of assay, cells were loaded with Fluo-4 (a calcium-sensitive dye that is commercially available from Molecular Probes, Eugene, Oreg.) and CAP-mediated calcium influx was measured using a Fluorometric Imaging Plate Reader (“FLIPR”) (commercially available from Molecular Devices Corp., Sunnyvale, Calif.) as described below. […]

human VR1 [2] = biological target: T1, human VR1; assay: VR1 capsaicin-based assay (FLIPR calcium influx); format: cell-based; conditions: HEK293-EcR cells induced to express human VR1; activation by capsaicin (400 nM); Fluo-4, FLIPR
Description: as §1, §2, §3

T1 sequence (Q8NER1 whole entry): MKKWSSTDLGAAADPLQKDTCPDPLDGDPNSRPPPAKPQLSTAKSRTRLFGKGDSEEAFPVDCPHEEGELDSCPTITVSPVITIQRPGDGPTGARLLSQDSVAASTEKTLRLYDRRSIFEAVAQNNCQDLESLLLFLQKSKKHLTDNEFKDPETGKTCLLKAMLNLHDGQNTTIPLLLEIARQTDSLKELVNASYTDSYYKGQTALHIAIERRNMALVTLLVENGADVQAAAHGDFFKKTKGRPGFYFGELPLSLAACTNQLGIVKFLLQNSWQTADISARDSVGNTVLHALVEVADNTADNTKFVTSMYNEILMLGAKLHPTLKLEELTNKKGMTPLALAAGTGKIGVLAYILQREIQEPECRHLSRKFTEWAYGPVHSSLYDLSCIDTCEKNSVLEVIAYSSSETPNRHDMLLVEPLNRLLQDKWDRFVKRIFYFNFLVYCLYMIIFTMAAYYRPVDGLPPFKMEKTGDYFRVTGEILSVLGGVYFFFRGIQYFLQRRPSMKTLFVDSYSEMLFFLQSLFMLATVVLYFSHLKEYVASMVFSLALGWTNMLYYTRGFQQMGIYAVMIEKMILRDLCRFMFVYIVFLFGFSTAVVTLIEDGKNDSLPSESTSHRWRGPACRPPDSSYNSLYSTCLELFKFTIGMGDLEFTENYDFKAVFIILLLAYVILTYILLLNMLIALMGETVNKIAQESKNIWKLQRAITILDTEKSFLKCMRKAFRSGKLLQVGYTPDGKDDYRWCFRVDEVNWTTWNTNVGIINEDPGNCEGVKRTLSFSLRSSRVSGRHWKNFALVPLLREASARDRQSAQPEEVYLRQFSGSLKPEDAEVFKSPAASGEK

- IC50 (human VR1 [1]): 221 ± 50.5 nM
- IC50 (human VR1 [2]): 47.2 ± 9.9 nM
Compound: Cc1ccnnc1N1CCN(C(=O)Nc2ccc(C(C)(C)C)cc2)CC1 [Compound A17, 4-(4-Methyl-pyridazin-3-yl)-piperazine-1-carboxylic acid (4-tert-butyl-phenyl)-amide]
